Results taken from patent US10172875B2, “Therapeutic combinations comprising anti-FOLR1 immunoconjugates” (ImmunoGen, Inc., priority 2015, dated 2019).
Where two headings read alike, the source gives them in different places.

Assays:
IGROV-1 cells = experiment: Cell cycle analysis, IMGN853 and carboplatin (FIG. 9B); type: cell-based; conditions: carboplatin 20 μM, IMGN853 8 nM, alone or combined, 6 hours, then 24 hour drug-free medium
Method: Cells were washed, and cell cycle distribution determined following 24 hour culture in drug-free medium.

[1] = tested on: IGROV-1 ovarian tumor xenografts; experiment: Antitumor activity of IMGN853, bevacizumab and combination in IGROV-1 tumor model (Example 5); type: in vivo, SCID mice; conditions: IMGN853 5 mg/kg 1× and/or bevacizumab 5 mg/kg 1×
From the text: All treatments consisted of single doses (1×).
FIG. 4 depicts the results.

[2] = tested on: OV90 serous ovarian tumor xenografts; experiment: Antitumor activity of IMGN853 (1.25 mg/kg), paclitaxel, bevacizumab and combinations in OV90 tumor model (Example 4); type: in vivo, SCID mice; conditions: single doses: IMGN853 1.25 mg/kg, paclitaxel 10 mg/kg, bevacizumab 5 mg/kg
Method: Mice were randomized into groups (n=8 per group) by tumor volume and subsequently dosed on Day 14 post-inoculation. All treatments consisted of single doses (1×).
Tumor volumes were measured one to two times weekly in three dimensions using a caliper. […] Body weights were measured twice per week as an index of toxicity.

[3] = tested on: OV90 serous ovarian tumor xenografts; experiment: Antitumor activity of IMGN853 (2.5 mg/kg), bevacizumab and combination in OV90 tumor model (Example 3); type: in vivo, SCID mice; conditions: IMGN853 2.5 mg/kg 1× and/or bevacizumab 5 mg/kg 1×
From the text: FIG. 2B depicts the results.

[4] = tested on: H2110 non-small cell lung cancer (NSCLC) tumor xenografts; conditions: for CR / PR: responders/animals
Method: Mice were randomized into groups (n=6-10 per group) by tumor volume and subsequently dosed on Day 7 post-inoculation. All treatments consisted of single doses (1×).
Tumor volumes were measured one to two times weekly in three dimensions using a caliper. The tumor volume was expressed in mm^3 using the formula V=Length×Width×Height×½ (Tomayko 1989). Body weights were measured twice per week as an index of test agent toxicity. Activity was assessed as described in Bissery et al. (1991).

[5] = tested on: platinum-sensitive ovarian cancer patient derived xenografts (PDXs); experiment: IMGN853 and carboplatin, single administration, in platinum-sensitive ovarian cancer PDX (FIG. 9D); type: in vivo, SCID mice
Method: Data are expressed as mean and standard error of the mean (SEM) for each time point.
To examine whether these in vitro cellular effects translated to improved efficacy in vivo, mice bearing patient-derived xenografts (PDX) obtained from an individual with EOC were treated with IMGN853 and carboplatin, both as single agents and in combination (FIG. 9D). […] Animals received a single administration of IMGN853 (2.5 mg/kg) or carboplatin (80 mg/kg), and each regimen inhibited tumor growth as monotherapy (T/C values of 43% and 20% on day 39, respectively).

[6] = tested on: platinum-resistant ovarian cancer PDXs; experiment: IMGN853 and PLD in platinum-resistant EOC PDX model (FIG. 10C, 10D); type: in vivo, SCID mice; conditions: QWx2: IMGN853 5 mg/kg or PLD 4 mg/kg; day 49
Method: Data are expressed as mean and SEM for each time point.
Mean values are plotted against vehicle controls.
To extend the in vitro observations, the combination of IMGN853 and PLD was examined in a platinum-resistant EOC PDX model (FIG. 10C). Vehicle-treated animals progressed quickly and were removed from study when tumors reached volumes between 1500-2000 mm^3. QWx2 dosing of IMGN853 (5 mg/kg) inhibited tumor growth by 81% on day 49, and a similar degree of inhibition (83%) was seen when PLD (4 mg/kg) was administered on the same schedule.

[7] = tested on: ST088 human epithelial ovarian cancer patient derived tumor xenografts; experiment: Antitumor activity of IMGN853, PLD and combination in ST088 tumor model (Example 1); type: in vivo, SCID mice
Method: Tumor volumes were measured twice weekly in three dimensions using a caliper. […] FIG. 1 depicts the results.

[8] = tested on: platinum-resistant ovarian cancer PDXs; experiment: IMGN853 with bevacizumab in platinum-resistant ovarian cancer PDX, 102-day study (FIG. 11B); type: in vivo, mice; conditions: IMGN853 5 mg/kg QWx2, bevacizumab 5 mg/kg QWx2, alone or combined
From the text: Tumor growth was monitored out to 102 days. * P=0.011; ** P=0.018; ns, not significant (Wilcoxon test, non-adjusted).

[9] = tested on: OV90 serous ovarian tumor xenografts; experiment: Antitumor activity of IMGN853, cediranib and combination in OV90 tumor model (Example 9); type: in vivo, SCID mice; conditions: IMGN853 2.5 mg/kg 1× and/or cediranib 1.5 mg/kg qd×5
From the text: The term “respond favorably” generally refers to causing a beneficial state in a subject. With respect to cancer treatment, the term refers to providing a therapeutic effect on the subject. Positive therapeutic effects in cancer can be measured in a number of ways (See, W. A. Weber, J. Nucl. Med. 50:1S-10S (2009)). For example, tumor growth inhibition, molecular marker expression, serum marker expression, and molecular imaging techniques can all be used to assess therapeutic efficacy of an anti-cancer therapeutic. Log10 Cell Kill (LCK) can be used to quantify the tumor cell kill. Log10 cell kill (LCK) is calculated with the formula LCK=(T−C)/Td×3.32, where (T−C) (or tumor growth delay (TGD)) is the median time (in days) for the treatment group and control group tumors to reach a predetermined size (tumor-free survivors excluded). Td is the tumor doubling time (estimated from nonlinear exponential curve fit of daily median of control tumor growth), and 3.32 is the number of cell doublings per log of cell growth. The ability to reduce tumor volume may be assessed, for example, by measuring a % T/C value, which is the median tumor volume of treated subjects divided by the median tumor volume of the control subjects. With respect to tumor growth inhibition, according to NCI standards, a T/C≤42% is the minimum level of anti-tumor activity. A T/C<10% is considered a high anti-tumor activity level, with T/C (%)=Median tumor volume of the treated/Median tumor volume of the control×100. A favorable response can be assessed, for example, by increased progression-free survival (PFS), disease-free survival (DFS), or overall survival (OS), complete response (CR), partial response (PR), or, in some cases, stable disease (SD), a decrease in progressive disease (PD), a […] time to progression (TTP), a decrease in CA125 in the case of ovarian cancer, or any combination thereof.

[10] = IMGN853 1.5 mg/kg 1×, alone or with bevacizumab 5 mg/kg 1×
[11] = IMGN853 3 mg/kg 1× and/or bevacizumab 5 mg/kg 1×
[12] = IMGN853 5 mg/kg QWx2 and/or PLD 4 mg/kg QWx2
[13] = IMGN853 5 mg/kg QWx2 and/or PLD 4 mg/kg QWx2, responders/animals

IMGN853 was tested, and the cell cycle distribution (IGROV-1 cells) was “enrichment of cells in G2/M”, the T/C [1] was 20% and the TFS [1] was 0/4. The antitumor activity rating [1] was “active”, the CR ([1]; responders/animals) was 0/4 and the TFS [2] was 0/7. For the same substance, the antitumor activity rating [2] was “active”, the T/C ([2]; alone or combined) was 37% and the CR ([2]; responders/animals) was 0/7. The T/C [3] was 36%, the TFS [3] was 0/6 and the antitumor activity rating [3] was “active”. For the same substance, the CR ([3]; responders/animals) was 0/6, the T/C [4, 10] was 64% and the TFS [4, 10] was 0/6. For the same substance, the antitumor activity rating [4, 10] was “inactive”, the CR [4, 10] was 0/6 and the PR [4, 10] was 1/6. For the same substance, the body weight loss ([4]; IMGN853 1.5 mg/kg monotherapy, Day 25 post-inoculation) was 8%, the T/C [4, 11] was 25% and the TFS [4, 11] was 0/6. The antitumor activity rating [4, 11] was “active”, the CR [4, 11] was 0/6 and the PR [4, 11] was 2/6. For the same substance, the body weight loss ([4]; IMGN853 3 mg/kg monotherapy, Day 42 post-inoculation) was 9%, the “single agent activity, previously determined (data not shown)” value ([5]; dose not stated) was “robust single agent activity” and the T/C ([5]; single administration: IMGN853 2.5 mg/kg and/or carboplatin 80 mg/kg, day 39) was 43%. For the same substance, the tumor growth inhibition [6] was 81%, the “tolerability / body weight” value ([7]; IMGN853 5 mg/kg QWx2) was “well tolerated with no notable body weight loss observed” and the T/C [7, 12] was 31%. The antitumor activity rating [7, 12] was “active”, the “complete responses (CR)” value [7, 13] was 0/8 and the “partial responses (PR)” value [7, 13] was 0/8. For the same substance, the antitumor effect [8] was “moderate activity”, the T/C [9] was 31% and the antitumor activity rating [9] was “active”. For the same substance, the LCK ([9]; Log10 cell kill) was 0.5, the PR ([9]; responders/animals) was 0/6 and the “T−C” value ([9]; tumor growth delay) was 13 days.
